# Source: patent publication US20250144067A1, “PERSONALIZED STARVATION THERAPY FOR CANCER” (Faeth Therapeutics, Inc., priority 2021, published 2025)
# Structures can show the parent of a compound that is named as a salt. Where two headings read alike, the source gives them in different places.
# Tests used:
# [1] = tested on: NCI-H292 lung cancer cells; assay: FDA drug screening, complete media vs cholesterol-free media without statin (TABLE 1); format: cell-based, human
# [2] = tested on: NCI-H292 lung cancer cells; assay: FDA drug screening, complete media vs cholesterol-free media with simvastatin (TABLE 2); format: cell-based, human
# [3] = Complete minus Cholesterol-free, greater than 0 enhanced anti-cancer activity, about 0 neutral, below 0 antagonist
# [4] = NCI-H292 cells, FDA drug library screen, cholesterol-free media without statin
# [5] = NCI-H292 cells, FDA drug library screen, complete media
# [6] = NCI-H292 cells, drug in cholesterol-free media with simvastatin 0.04 μM
# [7] = NCI-H292 cells, drug in complete media
# [8] = complete media vs cholesterol-free media + simvastatin (0.04 μM), >0 enhanced anti-cancer activity, about 0 neutral, <0 antagonist
# [9] = NCI-H292 cells, cholesterol-free media without statin
# [10] = NCI-H292 cells, cholesterol-free media with simvastatin 0.04 μM, FDA drug library screen (TABLE 2)
# [11] = NCI-H292 cells, complete media, FDA drug library screen (TABLE 2)
# [12] = complete media minus cholesterol-free media + simvastatin (0.04 μM), >0 enhanced anti-cancer activity, about 0 neutral, <0 antagonist
# [13] = Complete minus Cholesterol-free, >0 enhanced anti-cancer activity, about 0 neutral, <0 antagonist
# [14] = NCI-H292 cells, FDA library drug in cholesterol-free media with simvastatin 0.04 μM
# [15] = NCI-H292 cells, FDA library drug in complete media
# [16] = Complete minus Cholesterol-free, greater than 0 enhanced anti-cancer activity, about 0 neutral, below 0 antagonists
# [17] = NCI-H292 cells in cholesterol-free media without statin
# [18] = NCI-H292 cells in complete media
# [19] = NCI-H292 cells, cholesterol-free media with simvastatin 0.04 μM, cell growth value in FDA drug screen
# [20] = NCI-H292 cells, complete media, cell growth value in FDA drug screen
# [21] = complete media minus cholesterol-free media + simvastatin, >0 enhanced anti-cancer activity, about 0 neutral, <0 antagonist
# [22] = NCI-H292 cells, FDA drug library screen, cholesterol-free media with simvastatin 0.04 μM
# [23] = NCI-H292 cells, cholesterol-free media without statin, FDA drug library screen
# [24] = NCI-H292 cells, complete media, FDA drug library screen
# [25] = complete media vs cholesterol-free media + simvastatin (0.04 μM), […]
molecule,measurement,setting,value
Cc1cnc(Nc2ccc(OCCN3CCCC3)cc2)nc1Nc1cccc(S(=O)(=O)NC(C)(C)C)c1 [Fedratinib (hydrochloride hydrate)],Difference,[1]; [3],−0.13
same,Cholesterol-free,[1]; [4],0.469
same,Complete,[1]; [5],0.341
same,Cholesterol-free media + simvastatin (0.04 μM),[2]; [6],0.6402
same,Complete Media,[2]; [7],0.3774
same,Difference,[2]; [8],−0.26
O=C1NCN(c2ccccc2)C12CCN(CCCC(c1ccc(F)cc1)c1ccc(F)cc1)CC2 [Fluspirilene],Cholesterol-free,[1]; [9],1.319
same,Complete,"[1]; NCI-H292 cells, complete media",0.9067
same,Difference,"[1]; complete vs cholesterol-free media, greater than 0 enhanced anti-cancer activity, about 0 neutral, below 0 antagonists",−0.41
same,Cholesterol-free media + simvastatin (0.04 μM),[2]; [10],1.267
same,Complete Media,[2]; [11],1.241
same,Difference,[2]; [12],−0.03
CCOC(=O)c1ccc(N)cc1 [Benzocaine],Difference,[1]; [13],−0.30
same,Cholesterol-free,[1]; [9],0.9439
same,Complete,"[1]; NCI-H292 cells, complete media",0.6479
same,Cholesterol-free media + simvastatin (0.04 μM),[2]; [14],1.309
same,Complete Media,[2]; [15],1.007
same,Difference,[2]; [8],−0.30
Cc1cn([C@H]2C=C[C@@H](CO)O2)c(=O)[nH]c1=O [Stavudine],Difference,[1]; [3],−0.09
same,Cholesterol-free,[1]; [4],0.9921
same,Complete,[1]; [5],0.8994
same,Cholesterol-free media + simvastatin (0.04 μM),[2]; [6],1.022
same,Complete Media,[2]; [7],0.8293
same,Difference,[2]; [8],−0.19
C[C@H](Nc1ncnc2nc[nH]c12)c1cc2cccc(Cl)c2c(=O)n1-c1ccccc1 [Duvelisib],Difference,[1]; [16],−0.51
same,Cholesterol-free,[1]; [17],1.444
same,Complete,[1]; [18],0.9349
same,Cholesterol-free media + simvastatin (0.04 μM),[2]; [14],1.228
same,Complete Media,[2]; [15],0.8817
same,Difference,[2]; [8],−0.35
CCCCc1oc2ccccc2c1C(=O)c1cc(I)c(OCCN(CC)CC)c(I)c1 [Amiodarone (hydrochloride)],Difference,[1]; [16],−0.67
same,Cholesterol-free,[1]; [17],1.555
same,Complete,[1]; [18],0.8858
same,Cholesterol-free media + simvastatin (0.04 μM),[2]; [19],1.081
same,Complete Media,[2]; [20],1.107
same,Difference,[2]; [21],0.03
N[C@@H](Cc1cc(I)c(Oc2cc(I)c(O)c(I)c2)c(I)c1)C(=O)O [L-Thyroxine],Difference,[1]; [13],−0.28
same,Cholesterol-free,[1]; [9],1.11
same,Complete,"[1]; NCI-H292 cells, complete media",0.8302
same,Cholesterol-free media + simvastatin (0.04 μM),[2]; [22],1.059
same,Complete Media,[2]; [5],1.284
same,Difference,[2]; [21],0.23
COc1cc(OC)c(C(=O)CCCN2CCCC2)c(OC)c1 [Buflomedil (hydrochloride)],Difference,[1]; [13],−0.02
same,Cholesterol-free,[1]; [23],0.6014
same,Complete,[1]; [24],0.5837
same,Cholesterol-free media + simvastatin (0.04 μM),[2]; [22],0.7629
same,Complete Media,[2]; [5],1.555
same,Difference,[2]; [21],0.79
CCCCCCOC(=O)N=C(N)c1ccc(NCc2nc3cc(C(=O)N(CCC(=O)OCC)c4ccccn4)ccc3n2C)cc1 [Dabigatran etexilate],Difference,[1]; [3],−0.09
same,Cholesterol-free,[1]; [4],0.9682
same,Complete,[1]; [5],0.8738
same,Cholesterol-free media + simvastatin (0.04 μM),[2]; [19],0.8555
same,Complete Media,[2]; [20],0.8818
same,Difference,[2]; [21],0.03
CO/N=C(\C(=O)N[C@@H]1C(=O)N2C(C(=O)[O-])=C(C[n+]3ccn4ncccc43)CS[C@H]12)c1nsc(N)n1 [Cefozopran (hydrochloride)],Difference,[1]; [13],−0.04
same,Cholesterol-free,[1]; [23],1.014
same,Complete,[1]; [24],0.9759
same,Cholesterol-free media + simvastatin (0.04 μM),[2]; [14],1.89
same,Complete Media,[2]; [15],1.537
same,Difference,[2]; [8],−0.35
COc1ccc(-c2ccc3cc(C(=O)O)ccc3c2)cc1C12CC3CC(CC(C3)C1)C2 [Adapalene],Cholesterol-free,[1]; [23],0.6976
same,Complete,[1]; [24],1.022
same,Difference,"[1]; complete vs cholesterol-free media, >0 enhanced anti-cancer activity, about 0 neutral, <0 antagonist",0.32
same,Cholesterol-free media + simvastatin (0.04 μM),[2]; [10],0.9237
same,Complete Media,[2]; [11],0.9286
same,Difference,[2]; [12],0.00
CCCSc1ccc2nc(NC(=O)OC)[nH]c2c1 [Albendazole],Cholesterol-free,[1],0.9001
same,Complete,[1],0.9862
same,Difference,[1],0.09
same,Cholesterol-free media + simvastatin (0.04 μM),[2],1.236
same,Complete Media,[2],0.9882
same,Difference,[2],−0.25
Cc1onc(-c2ccccc2)c1C(=O)N[C@@H]1C(=O)N2[C@@H]1SC(C)(C)[C@@H]2C(=O)O [Oxacillin (sodium monohydrate)],Difference,[1]; [13],−0.02
same,Cholesterol-free,[1]; [23],0.9255
same,Complete,[1]; [24],0.9062
same,Cholesterol-free media + simvastatin (0.04 μM),[2]; [14],1.304
same,Complete Media,[2]; [15],1.035
same,Difference,[2]; [8],−0.27
CC(C)C[C@@H](N)C(=O)N[C@H]1C(=O)N[C@@H](CC(N)=O)C(=O)N[C@H]2C(=O)N[C@H]3C(=O)N[C@H](C(=O)N[C@H](C(=O)O)c4cc(O)cc(O)c4-c4cc3ccc4O)[C@H](O)c3ccc(c(Cl)c3)Oc3cc2cc(c3O[C@@H]2O[C@H](CO)[C@@H](O)[C@H](O)[C@H]2O[C@H]2C[C@](C)(N)[C@H](O)[C@H](C)O2)Oc2ccc(cc2Cl)[C@H]1O.Cl [Norvancomycin (hydrochloride)],Difference,"[1]; Complete minus Cholesterol-free, […]",−0.07
same,Cholesterol-free,[1]; [4],1.244
same,Cholesterol-free media + simvastatin (0.04 μM),[2]; [14],1.335
same,Complete Media,[2]; [15],0.8954
same,Difference,[2]; [25],−0.44
CNCc1ccc(-c2[nH]c3cc(F)cc4c3c2CCNC4=O)cc1 [Rucaparib (Camsylate)],Difference,[1]; [13],−0.26
same,Cholesterol-free,[1]; [9],1.063
same,Complete,"[1]; NCI-H292 cells, complete media",0.7996
same,Cholesterol-free media + simvastatin (0.04 μM),[2]; [14],1.277
same,Complete Media,[2]; [15],0.994
same,Difference,[2]; [8],−0.28
COc1ccc2[n-]c([S+]([O-])Cc3ncc(C)c(OC)c3C)nc2c1.[Na+] (centres unmarked) [Omeprazole (sodium)],Difference,[1]; [13],−0.07
same,Cholesterol-free,[1]; [23],0.7641
same,Complete,[1]; [24],0.6989
same,Cholesterol-free media + simvastatin (0.04 μM),[2]; [10],0.9544
same,Complete Media,[2]; [11],0.9688
same,Difference,[2]; [12],0.01
CC(=O)c1c(C)c2cnc(Nc3ccc(N4CCNCC4)cn3)nc2n(C2CCCC2)c1=O.O=S(=O)(O)CCO [Palbociclib (isethionate)],Difference,[1]; [13],−0.25
same,Cholesterol-free,[1]; [9],0.905
same,Complete,"[1]; NCI-H292 cells, complete media",0.6502
same,Cholesterol-free media + simvastatin (0.04 μM),[2]; [10],0.7514
same,Complete Media,[2]; [11],0.6914
same,Difference,[2]; [12],−0.06
Clemastine (fumarate),Difference,[1]; [16],−0.61
same,Cholesterol-free,[1]; [17],1.716
same,Cholesterol-free media + simvastatin (0.04 μM),[2]; [19],0.8829
same,Difference,[2]; [21],0.12
CC(S)C(=O)NCC(=O)O (centres unmarked) [Tiopronin],Difference,[1]; [13],−0.20
same,Cholesterol-free,[1]; [9],0.9241
same,Complete,"[1]; NCI-H292 cells, complete media",0.7208
same,Cholesterol-free media + simvastatin (0.04 μM),[2]; [19],1.026
same,Difference,[2]; [21],0.12
Nc1nc2ccc(OC(F)(F)F)cc2s1 [Riluzole hydrochloride],Difference,[1]; [13],−0.27
same,Cholesterol-free,[1]; [9],1.152
same,Complete,"[1]; NCI-H292 cells, complete media",0.8769
same,Cholesterol-free media + simvastatin (0.04 μM),[2]; [19],0.9663
same,Complete Media,[2]; [20],0.9877
same,Difference,[2]; [21],0.02
CCC1=C[C@@H]2[C@H](C1)C[C@]2(CN)CC(=O)O [Mirogabalin],Cholesterol-free,[1]; [23],0.5074
same,Complete,[1]; [24],1.015
same,Difference,"[1]; complete vs cholesterol-free media, […]",0.51
same,Cholesterol-free media + simvastatin (0.04 μM),[2]; [6],1.082
same,Complete Media,[2]; [7],0.8543
same,Difference,[2]; [25],−0.23
Setiptiline (maleate),Difference,[1]; [13],0.02
same,Cholesterol-free,[1]; [23],0.9606
same,Complete,[1]; [24],0.9832
same,Cholesterol-free media + simvastatin (0.04 μM),[2]; [6],1.022
same,Complete Media,[2]; [7],0.7709
same,Difference,[2]; [8],−0.25
